Reference: ChEMBL document CHEMBL4152249, “Alkoxyphenylthiazoles with broad-spectrum activity against multidrug-resistant gram-positive bacterial pathogens” (Eur J Med Chem, 2018)
Converted amounts (≈) assume the structure as drawn.

Legend:
Staphylococcus aureus [1] = test: Bactericidal activity against Staphylococcus aureus USA400 NRS123 incubated for 20 hrs followed by re-plating on tryptic soy agar plates at 37 degC for 18 hrs by broth microdilution assay; type: functional
Staphylococcus aureus [2] = test: Bactericidal activity against Staphylococcus aureus USA400 assessed as reduction in colony forming unit at 6 times MIC treated for 2 hrs followed by re-plating on tryptic soy agar plates at 37 degC for 18 to 20 hrs by broth microdilution assay; type: functional; parameters: scale not given: the % may be the effect or the level left
[3] = Selectivity index, ratio of compound effect for human Caco2 cells at maximum non-toxic concentration concentration to MIC for methicillin-resistant Streptococcus pneumoniae ATCC 700677; type: toxicity; conditions: Caco-2 cells, read-out: Selectivity Index
Staphylococcus aureus [4] = test: Bactericidal activity against vancomycin-resistant Staphylococcus aureus VRSA12 incubated for 20 hrs followed by re-plating on tryptic soy agar plates at 37 degC for 18 hrs by broth microdilution assay; type: functional
Staphylococcus aureus [5] = test: Bactericidal activity against Staphylococcus aureus USA400 assessed as reduction in colony forming unit at 3 times MIC treated for 4 hrs followed by re-plating on tryptic soy agar plates at 37 degC for 18 to 20 hrs by broth microdilution assay; type: functional; parameters: scale not given: the % may be the effect or the level left
Staphylococcus aureus [6] = test: Antibacterial activity against methicillin-resistant Staphylococcus aureus 2658 RCMB after 20 hrs by broth microdilution assay; type: functional
Staphylococcus aureus [7] = test: Antibacterial activity against methicillin-resistant Staphylococcus aureus NRS385 after 20 hrs by broth microdilution assay; type: functional; conditions: NRS385, 20 h
Staphylococcus aureus [8] = test: Bactericidal activity against methicillin-sensitive Staphylococcus aureus NRS107 incubated for 20 hrs followed by re-plating on tryptic soy agar plates at 37 degC for 18 hrs by broth microdilution assay; type: functional
Enterococcus faecium [9] = test: Bactericidal activity against vancomycin-resistant Enterococcus faecium ATCC 700221 incubated for 20 hrs followed by re-plating on tryptic soy agar plates at 37 degC for 18 hrs by broth microdilution assay; type: functional
Staphylococcus aureus [10] = test: Antibacterial activity against methicillin-resistant Staphylococcus aureus after 20 hrs by broth microdilution assay; type: functional
Caco-2 = test: Cytotoxicity against human Caco2 cells assessed as effect on cell viability up to 64 ug/ml after 2 hrs by MTS assay; type: cell-based; conditions: caco-2, 2 h
[11] = tested on: Staphylococcus epidermidis; test: Antibacterial activity against methicillin-resistant Staphylococcus epidermidis NRS101 after 20 hrs by broth microdilution assay; type: functional; conditions: NRS101, 20 h
Streptococcus pneumoniae [12] = test: Antibacterial activity against cephalosporin-resistant Streptococcus pneumoniae ATCC 51916 after 20 hrs by broth microdilution assay; type: functional; conditions: ATCC 51916, 20 h
Staphylococcus aureus [13] = test: Antibacterial activity against methicillin-resistant Staphylococcus aureus NRS386 after 20 hrs by broth microdilution assay; type: functional; conditions: NRS386, 20 h
Staphylococcus aureus [14] = test: Bactericidal activity against linezolid-resistant Staphylococcus aureus NRS119 incubated for 20 hrs followed by re-plating on tryptic soy agar plates at 37 degC for 18 hrs by broth microdilution assay; type: functional
Staphylococcus aureus [15] = test: Bactericidal activity against vancomycin-resistant Staphylococcus aureus VRSA10 incubated for 20 hrs followed by re-plating on tryptic soy agar plates at 37 degC for 18 hrs by broth microdilution assay; type: functional
Enterococcus faecium [16] = test: Antibacterial activity against vancomycin-resistant Enterococcus faecium ATCC 700221 after 20 hrs by broth microdilution assay; type: functional; conditions: ATCC 700221, 20 h
Staphylococcus aureus [17] = test: Bactericidal activity against methicillin-resistant Staphylococcus aureus NRS385 incubated for 20 hrs followed by re-plating on tryptic soy agar plates at 37 degC for 18 hrs by broth microdilution assay; type: functional
Streptococcus pneumoniae [18] = test: Antibacterial activity against methicillin-resistant Streptococcus pneumoniae ATCC 700677 after 20 hrs by broth microdilution assay; type: functional; conditions: ATCC 700677, 20 h
Enterococcus faecalis [19] = test: Ratio of MBC to MIC for vancomycin-resistant Enterococcus faecalis ATCC 51299; type: functional
Listeria monocytogenes [20] = test: Bactericidal activity against Listeria monocytogenes ATCC 19111 incubated for 20 hrs followed by re-plating on tryptic soy agar plates at 37 degC for 18 hrs by broth microdilution assay; type: functional
Staphylococcus aureus [21] = test: Antibacterial activity against methicillin-resistant Staphylococcus aureus USA400 NRS123 assessed as ratio of MIC after and before 14 passages over 2 weeks by broth microdilution method; type: functional
Enterococcus faecalis [22] = test: Antibacterial activity against vancomycin-resistant Enterococcus faecalis ATCC 51299 after 20 hrs by broth microdilution assay; type: functional; conditions: ATCC 51299, 20 h
[23] = Selectivity index, ratio of compound effect for human Caco2 cells at maximum non-toxic concentration concentration to MIC for vancomycin-resistant Enterococcus faecalis ATCC 51299; type: toxicity; conditions: Caco-2 cells, read-out: Selectivity Index
[24] = Selectivity index, ratio of compound effect for human Caco2 cells at maximum non-toxic concentration concentration to MIC for methicillin-resistant Staphylococcus epidermidis NRS101; type: toxicity; conditions: Caco-2 cells, read-out: Selectivity Index
Streptococcus pneumoniae [25] = test: Bactericidal activity against methicillin-resistant Streptococcus pneumoniae ATCC 700677 incubated for 20 hrs followed by re-plating on tryptic soy agar plates at 37 degC for 18 hrs by broth microdilution assay; type: functional
Staphylococcus aureus [26] = test: Bactericidal activity against Staphylococcus aureus USA300 NRS384 incubated for 20 hrs followed by re-plating on tryptic soy agar plates at 37 degC for 18 hrs by broth microdilution assay; type: functional
Enterococcus faecalis [27] = test: Bactericidal activity against vancomycin-resistant Enterococcus faecalis ATCC 51299 incubated for 20 hrs followed by re-plating on tryptic soy agar plates at 37 degC for 18 hrs by broth microdilution assay; type: functional
Staphylococcus aureus [28] = test: Antibacterial activity against Staphylococcus aureus after 20 hrs by broth microdilution assay; type: functional
Staphylococcus aureus [29] = test: Antibacterial activity against vancomycin-resistant Staphylococcus aureus VRSA10 after 20 hrs by broth microdilution assay; type: functional; conditions: VRSA10, 20 h
Listeria monocytogenes [30] = test: Antibacterial activity against Listeria monocytogenes ATCC 19111 after 20 hrs by broth microdilution assay; type: functional; conditions: ATCC 19111, 20 h
[31] = Selectivity index, ratio of compound effect for human Caco2 cells at maximum non-toxic concentration concentration to MIC for vancomycin-resistant Enterococcus faecium ATCC 700221; type: toxicity; conditions: Caco-2 cells, read-out: Selectivity Index
[32] = tested on: Staphylococcus epidermidis; test: Bactericidal activity against methicillin-resistant Staphylococcus epidermidis NRS101 incubated for 20 hrs followed by re-plating on tryptic soy agar plates at 37 degC for 18 hrs by broth microdilution assay; type: functional
Staphylococcus aureus [33] = test: Bactericidal activity against methicillin-resistant Staphylococcus aureus NRS386 incubated for 20 hrs followed by re-plating on tryptic soy agar plates at 37 degC for 18 hrs by broth microdilution assay; type: functional
Staphylococcus aureus [34] = test: Antibacterial activity against vancomycin-resistant Staphylococcus aureus VRSA12 after 20 hrs by broth microdilution assay; type: functional; conditions: VRSA12, 20 h
Streptococcus pneumoniae [35] = test: Bactericidal activity against cephalosporin-resistant Streptococcus pneumoniae ATCC 51916 incubated for 20 hrs followed by re-plating on tryptic soy agar plates at 37 degC for 18 hrs by broth microdilution assay; type: functional
Listeria monocytogenes [36] = test: Ratio of MBC to MIC for Listeria monocytogenes ATCC 19111; type: functional
[37] = Selectivity index, ratio of compound effect for human Caco2 cells at maximum non-toxic concentration concentration to MIC for Listeria monocytogenes ATCC 19111; type: toxicity; conditions: Caco-2 cells, read-out: Selectivity Index
[38] = Selectivity index, ratio of compound effect for human Caco2 cells at maximum non-toxic concentration concentration to MIC for cephalosporin-resistant Streptococcus pneumoniae ATCC 51916; type: toxicity; conditions: Caco-2 cells, read-out: Selectivity Index

## CCCCCCCOc1ccc(-c2nc(C)c(-c3ccnc(NC(=N)N4CCN(C)CC4)n3)s2)cc1
Staphylococcus aureus [1]
  MBC: 8 µg/mL (≈ 15.8 µM)
Staphylococcus aureus [2]
  Activity: 100%
[3]
  selectivity ratio: 7 to 82
Staphylococcus aureus [4]
  MBC: 8 µg/mL (≈ 15.8 µM)
Staphylococcus aureus [5]
  Activity: 100%
Staphylococcus aureus [6]
  MIC: 0.78 µg/mL (≈ 1.54 µM)
Staphylococcus aureus [7]
  MIC: 8 µg/mL (≈ 15.8 µM)
Staphylococcus aureus [8]
  MBC: 8 µg/mL (≈ 15.8 µM)
Enterococcus faecium [9]
  MBC: 8 µg/mL (≈ 15.8 µM)
Staphylococcus aureus [10]
  MIC: 8 µg/mL (≈ 15.8 µM)
Caco-2
  Activity: Non-Toxic
[11]
  MIC: 8 µg/mL (≈ 15.8 µM)
Streptococcus pneumoniae [12]
  MIC: 16 µg/mL (≈ 31.5 µM)
Staphylococcus aureus [13]
  MIC: 8 µg/mL (≈ 15.8 µM)
Staphylococcus aureus [14]
  MBC: 8 µg/mL (≈ 15.8 µM)
Staphylococcus aureus [15]
  MBC: 8 µg/mL (≈ 15.8 µM)
Enterococcus faecium [16]
  MIC: 8 µg/mL (≈ 15.8 µM)
Staphylococcus aureus [17]
  MBC: 8 µg/mL (≈ 15.8 µM)
Streptococcus pneumoniae [18]
  MIC: 16 µg/mL (≈ 31.5 µM)
Enterococcus faecalis [19]
  Ratio: 1
Listeria monocytogenes [20]
  MBC: 8 µg/mL (≈ 15.8 µM)
Staphylococcus aureus [21]
  Ratio: 1
Enterococcus faecalis [22]
  MIC: 8 µg/mL (≈ 15.8 µM)
[23]
  selectivity ratio: 7 to 82
[24]
  selectivity ratio: 7 to 82
Streptococcus pneumoniae [25]
  MBC: 16 µg/mL (≈ 31.5 µM)
Staphylococcus aureus [26]
  MBC: 8 µg/mL (≈ 15.8 µM)
Enterococcus faecalis [27]
  MBC: 16 µg/mL (≈ 31.5 µM)
Staphylococcus aureus [28]
  MIC: 8 µg/mL (≈ 15.8 µM)
Staphylococcus aureus [29]
  MIC: 8 µg/mL (≈ 15.8 µM)
Listeria monocytogenes [30]
  MIC: 4 µg/mL (≈ 7.88 µM)
[31]
  selectivity ratio: 7 to 82
[32]
  MBC: 8 µg/mL (≈ 15.8 µM)
Staphylococcus aureus [33]
  MBC: 8 µg/mL (≈ 15.8 µM)
Staphylococcus aureus [34]
  MIC: 8 µg/mL (≈ 15.8 µM)
Streptococcus pneumoniae [35]
  MBC: 16 µg/mL (≈ 31.5 µM)
Listeria monocytogenes [36]
  Ratio: 1
[37]
  selectivity ratio: 7 to 82
[38]
  selectivity ratio: 7 to 82
